The results in this text go back to patent US10301298B2, “Methods, compounds, and compositions for the treatment of angiotensin-related diseases” (University of Southern California, priority 2013, dated 2019).

Entries after “also recorded” stand apart in the source; their conditions may differ.

Assay [1] has as its target T1, Mas (Homo sapiens, UniProt P04201).
T1 construct: expressed in transfected cells
T1 sequence (P04201 1-325): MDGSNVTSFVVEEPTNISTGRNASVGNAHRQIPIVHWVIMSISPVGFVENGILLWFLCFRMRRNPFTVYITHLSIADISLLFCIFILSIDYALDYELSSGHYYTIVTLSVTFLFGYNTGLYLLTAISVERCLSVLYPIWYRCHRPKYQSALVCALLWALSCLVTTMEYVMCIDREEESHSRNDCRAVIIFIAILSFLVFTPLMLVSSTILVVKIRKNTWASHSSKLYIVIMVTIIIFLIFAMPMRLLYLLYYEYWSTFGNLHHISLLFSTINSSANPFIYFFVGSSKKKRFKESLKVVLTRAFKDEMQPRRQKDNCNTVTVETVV
Kind of assay: Competition binding assay, displacement of fluorescent Ang(1-7) from Mas-transfected CHO cells. Further details: concentration or dose not given beside the values. Conditions: CHO cells transfected with Human mas1, on ice. Here is the method:
CHO cells stably transfected with recombinant Human mas1 proto-oncogen driven by the human cytomegalovirus were grown to 80% confluency. The cells were detached with trypsin and harvested by centrifugation. Cells were washed three times in progressively colder buffers. The final number of cells per assay was 5×10^5. All subsequent steps were performed on ice. Test compound was added to the cells for 10 minutes prior to addition of fluorescently labeled A(1-7). After 10 minutes further incubation, the cells were washed to remove unbound A(1-7) and the fluorescence bound was read at an excitation of 490 nm and an emission of 520 nm.

In another assay the test system is db/db mice. Kind of assay: Bone marrow cell counts and progenitor colonies in db/db mice. In kind it is in vivo. Conditions: 500 mcg/kg/day subcutaneously, 14 days. As for the experimental part: The femurs and tibia were collected from db/db mice treated 500 mcg/kg/day Ang(1-7) or Compound 7 subcutaneously for 14 days were euphanized and the bone marrow were collected by flushing with PBS containing 2% fetal calf serum. After collection of the bone marrow, the red blood cells will be lysed with a hypotonic solution (described above), mixed with 0.04% trypan blue and the number of nucleated cells was assessed by hematocytometer under light microscopy. Aliquots of cells were then resuspended at 1×10^6 cells/ml (GM and GEMM, bone marrow), 1.5×10^6 cells/ml (BFU-E, bone marrow). One hundred μ1 of each suspension was added to 900 μl of semisolid medium containing 0.9% methyl cellulose in Iscove's MDM, 15% fetal calf serum, 1% bovine serum albumin, 10 μg/ml bovine pancreatic insulin, 200 μg/ml human transferrin, 10^−4 M 2-mercaptoethanol, 2 mM glutamine, 10 ng/ml recombinant murine interleukin 3, 10 ng/ml recombinant human interleukin 6, 50 ng/ml recombinant murine stem cell factor and 3 units/ml erthropoietin. This mixture was then added to duplicate wells of a 24 well plate. The cultures were then placed at 37° C. in a humidified atmosphere of 5% CO2 in air. At day 14, the number of progenitor colonies formed was enumerated under phase contrast microscopy.
The bone marrow cells were also cultured to assess the number of MSCs by a CFU—F assay. 2.5×10^5 cells/ml, 2 ml per well, were diluted into Mesencult medium (Stem Cell Technologies, Vancouver, BC, Canada) and 2 mL were placed in each well of a 24 well plate. The cultures were then incubated at 37° C. in a humidified atmosphere of 5% CO2 in air. At days 2, 5 and 8, the number of progenitor colonies formed was enumerated under phase contrast microscopy.

The target in assay [2] is T1, Mas. Kind of assay: NO production in CHO cells stably transfected with Human Mas1. In kind it is cell-based. Here is the method: Transfected cells that express Mas were used to identify and evaluate provided compounds as Mas agonists, by promoting NO production as readouts. CHO cells stably transfected with pTEJ-8 vector containing recombinant Human Mas1 clone were grown to confluency. Cells were washed three times for 30/5/5 minutes with prewarmed (37° C.) Tyrodes Salts (supplemented with 1 g/L NaHCO3, and 1.9 g/L d-Glucose). Cells were incubated for a short time in 700 μL of supplemented Tyrodes salts containing 10 μM PTIO, 100 μM DAN, and 1 mM L-arginine. When using antagonist for competition assays, cells were exposed to the inhibitor at 1×10^−7 M for 15 minutes, before additional drugs are added.
Chemicals (10^−8 to 10^−6 M or the maximum concentration found not to cause cytotoxicity) to be screened were added to the cell medium and the plates were agitated for 1 minute before being placed into the incubator for 2 hours. After 2 hours, cellular supernatants were transferred to opaque 96 well plates, and the fluorescence intensity was recorded at an ex/em of 380/425.

Regarding `CCCCOC(=O)NS(=O)(=O)c1ccc(OC(F)(F)F)cc1-c1ccc(CN2CCOCC2)cn1` [Compound 9, butyl (2-(5-(morpholinomethyl)pyridin-2-yl)-4-(trifluoromethoxy)phenyl)sulfonyl-carbamate], at Mas [1], the “% Displacement” value is listed as 17.3%.

As for `CCCCOC(=O)NS(=O)(=O)c1ccc(OC(F)(F)F)cc1-c1ccc(CN2CCN(C)C2=O)cn1` [Compound 8, butyl (2-(5-((3-methyl-2-oxoimidazolidin-1-yl)methyl)pyridin-2-yl)-4-(trifluoromethoxy)phenyl) sulfonylcarbamate], on Mas [1], the “% Displacement” value is 18.6%.

For the molecule `CCCCOC(=O)NS(=O)(=O)c1ccc(OC(F)(F)F)cc1-c1ccc(CN2CCN(C)CC2)cn1` [Compound 10, butyl (2-(5-((4-methylpiperazin-1-yl)methyl)pyridin-2-yl)-4-(trifluoromethoxy)phenyl)sulfonylcarbamate], the “% Displacement” value at Mas [1] came to 22.0%.

Turning to “Asp-Arg-Val-Tyr-Ile-His-Pro [Ang(1-7), reference compound]”, the bone marrow counts result in the assay on db/db mice is reported as “increase bone marrow counts; also recorded: increased the bone marrow counts”. Moreover, the “ability to enhance NO production (fluorescence)” value with Mas [2] (Mas-transfected CHO cells) was “concentration dependent increase in NO”. In addition, in the assay with Mas [2] (with A779, selective Mas antagonist, 1×10^−7 M), the “NO production with co-administration of A779” value is listed as “back to baseline fluorescence”.

With `CCCCOC(=O)NS(=O)(=O)c1ccc(OC(F)(F)F)cc1-c1ncc(Cn2ccnc2)s1` [Compound 11, butyl (2-(5-((1H-imidazol-1-yl)methyl)thiazol-2-yl)-4-(trifluoromethoxy)phenyl)sulfonylcarbamate], the “% Displacement” value on Mas [1] is given as 23.0%.
